Patent US20230248660A1 (Intelgenx Corp., priority 2016, published 2023)

Legend:
Porcine buccal mucosa = test: Loxapine diffusion through Porcine buccal mucosa (Franz cell); conditions: penetration enhancer in loxapine oral film, permeation through the mucosa
Method: FIG. 1 graphically depicts 1 oxapine film diffusion through Porcine buccal mucosa (48-hrs-old unfrozen fresh mucosa) (Franz cell 1.76 cm2; 37° C.); saliva pH 6.8.
FIG. 2 graphically depicts 1 oxapine film diffusion through Porcine buccal mucosa (26-hrs-old unfrozen fresh mucosa) (Franz cell 1.76 cm2; 37° C.); saliva pH 6.8.
FIG. 3 graphically depicts 1 oxapine Solutions-diffusion through Porcine buccal mucosa (fresh mucosa kept at 4C for 48 hours) (Franz cell 1.76 cm2; 37° C.); saliva pH 6.8.
These penetration enhancers include sulphoxides (dimethylsulphoxide, decylmethyl sulfoxide), azones (laurocapram), pyrrolidones (2pyrrolidone, 2P), alcohols/alkanols (ethanol or decanol), glycols (propylene glycol), surfactants (anionic, sodium lauryl sulfate, sodium decyl sulfate), (Nonionic, Tween, PLE), (Cationic, chitosan, cetylpyridinium chloride), terpenes (1,8-cineole, menthol, and menthone, D-limonene), fatty acids (oleic acid, sodium caprate), and bile salts (sodium deoxycholate, sodium deoxyglycocholate).

[1] = at or near neutral pH; cited from earlier work

Row | Compound | Effect on loxapine absorption/permeation (Porcine buccal mucosa) | also measured
1 | C=C(C)[C@@H]1CC=C(C)CC1 [(S)-(−)-Limonene] | positif effect (+) | –
2 | CCCCCCCCCCCCCCCC[n+]1ccccc1 [Cetylpyridinium chloride] | no effect | –
3 | O=C(O)CN(CCN(CC(=O)O)CC(=O)O)CC(=O)O.[Ca].[Na].[Na] [Ethylenediaminetetraacetic acid calcium disodium] | no effect | –
4 | CCCCCCCCCCCCOS(=O)(=O)[O-].[Na+] [Sodium lauryl sulphate (SLS), Sodium lauryl sulphate] | – | Effect on loxapine absorption/permeation (Porcine buccal mucosa; listed as SLS, sulphate): reduce absorption/permeation; Effect on loxapine absorption/permeation (Porcine buccal mucosa; sulphate): negative effect(−)
5 | CN1CCN(C2=Nc3ccccc3Oc3ccc(Cl)cc32)CC1 [loxapine, 2-chloro-11-(4-methylpiperazin-1-yl) dibenzo[b,f] [1,4] loxazepine] | – | solubility of loxapine [1]: especially low
6 | Sodium deoxycholate | positif effect (+) | –
